Patent US12304899B2, “Factor XI activation inhibitors” (Merck Sharp & Dohme LLC, priority 2019, dated 2025)
pEC50: −log10 of the molar value.

Target: T1, Human coagulation factor (F)XI (Homo sapiens, UniProt P03951)
T1 construct: purchased Haematologic Technologies Inc. (FXI); Enzyme Research Laboratories (FXIIa) HCXI-150 (FXI); HFXIIa (FXIIa)
Test: Inhibition of FXIIa mediated activation of FXI (activation of human Factor XI to XIa by human Factor α-XIIa)
Assay type: biochemical
Conditions: human FXI pre-incubated with compound 30 min at 22° C., activation by human FXIIa 60 min, z-GPR-AFC substrate fluorescence, 4 parameter logistic fit; read-out: Inhibition of FXIIa meditated activation of FXI
Method: Inhibition of FXIIa Mediated Activation of FXI
Activation of Human Factor XI to XIa by Human Factor α-XIIa
The assay was performed in 50 mM HEPES, 150 mM NaCl, 5 mM CaCl2, 0.1% PEG-8000, pH 7.4 buffer in black, flat-bottom, polystyrene microplates (Corning, Cat #3573). Serial dilutions (10-point, 3.333-fold) of the test compounds delivered as 10 mM DMSO stocks were prepared in the Labcyte Echo-qualified PP 384 well microplates (Labcyte, Cat #P-05525). Human coagulation factor (F)XI (Haematologic Technologies Inc., Cat #HCXI-150, concentration 46 nM, 19.5 uL) was pre-incubated with 0.5 uL of the test compounds for 30 min at 22° C. The activation was initiated by addition of 10 uL of human coagulation factor (F)XIIa (Enzyme Research Laboratories, Cat #HFXIIa, concentration 30 nM) and the reaction proceeded for 60 min at 22° C., after which it was quenched by addition of a selective inhibitor of FXIIa (Compound 54 in International Patent Publication WO2018093695) concentration 600 uM in DMSO, 1 uL). 10 min after the quench, 29 uL of z-GPR-AFC substrate (Sigma, Cat #C0980-10 MG, concentration 200 uM) was added into each well and the detection reaction proceeded for 60 min at 22° C. Fluorescence at 405/510 nm was measured in end-point mode using an Envision plate-reader (Perkin Elmer). IDBS Activity Base XE (ABase) analysis using 4 parameter logistic fit was performed to determine Minimum, Maximum, EC50, and Slope Factor for each compound.

T1 sequence (P03951 19-625): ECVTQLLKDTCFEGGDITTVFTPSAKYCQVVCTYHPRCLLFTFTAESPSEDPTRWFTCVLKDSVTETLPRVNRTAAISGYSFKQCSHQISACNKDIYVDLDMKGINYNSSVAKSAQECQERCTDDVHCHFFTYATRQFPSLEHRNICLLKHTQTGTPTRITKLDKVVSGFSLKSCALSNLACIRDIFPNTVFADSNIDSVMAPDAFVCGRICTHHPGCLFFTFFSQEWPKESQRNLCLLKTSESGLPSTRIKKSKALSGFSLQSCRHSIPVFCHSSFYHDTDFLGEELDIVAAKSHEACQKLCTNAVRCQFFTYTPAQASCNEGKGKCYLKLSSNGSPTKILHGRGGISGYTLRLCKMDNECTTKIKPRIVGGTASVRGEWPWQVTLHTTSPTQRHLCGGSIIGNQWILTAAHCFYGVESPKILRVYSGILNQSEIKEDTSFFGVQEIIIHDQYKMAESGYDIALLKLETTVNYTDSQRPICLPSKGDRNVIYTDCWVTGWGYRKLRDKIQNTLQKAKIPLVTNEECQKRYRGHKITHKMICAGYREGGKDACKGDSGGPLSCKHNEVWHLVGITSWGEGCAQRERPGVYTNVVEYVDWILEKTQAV

SMILES | pEC50
O=C(c1cc(C(=O)N2CCCCC2)c2cc(OCc3cn4ccccc4n3)ccc2n1)N1CCC(n2cccn2)CC1 [Example 25, (4-(1H-pyrazol-1-yl)piperidin-1-yl)(6-(imidazo[1,2-a]-pyridin-2-ylmethoxy)-4-(piperidine-1-carbonyl)quin-olin-2-yl)methanone] | 7.47
O=C(c1cc(C(=O)N2CCCCC2)c2cc(OCc3ccc(C(F)(F)F)nc3)ccc2n1)N1CCC(n2cccn2)CC1 [Example 10, (4-(1H-pyrazol-1-yl)piperidin-1-yl)(4-(piperidine-1-carbon-yl)-6-((6-(trifluoromethyl)-pyridin-3-yl)methoxy)-quinolin-2-yl)methanone] | 7.66
CN(C(=O)c1cc(C(=O)N2CCC(n3cccn3)CC2)nc2ccc(OCc3nc4ccccc4s3)cc12)C1CC1 [Example 54, 2-(4-(1H-pyrazol-1-yl)piperi-dine-1-carbonyl)-6-(benzo[d]-thiazol-2-ylmethoxy)-N-cyclo-propyl-N-methylquinoline-4-carboxamide] | 7.15
NC(=O)C1(c2ccccc2)CCN(C(=O)c2cc(C(=O)N3CCCCC3)c3cc(OCc4nc5ccccc5s4)ccc3n2)CC1 [Example 59, 1-(6-(benzo[d]thiazol-2-yl-methoxy)-4-(piperidine-1-carbonyl)quinoline-2-car-bonyl)-4-phenylpiperidine-4-carboxamide] | 7.22
N#Cc1ccc(COc2ccc3nc(C(=O)N4CCC(C#N)(c5ccccc5)CC4)cc(C(=O)N4CCCCC4)c3c2)cc1 [Example 31, 1-(6-((4-cyanobenzyl)oxy)-4-(piperidine-1-carbonyl)quin-oline-2-carbonyl)-4-phenyl-piperidine-4-carbonitrile] | 7.60
COc1ccc(COc2ccc3nc(C(=O)N4CCC(C#N)(c5ccccc5)CC4)cc(C(=O)N4CCCCC4)c3c2)cc1F [Example 39, 1-(6-((3-fluoro-4-methoxy-benzyl)oxy)-4-(piperidine-1-carbonyl)quinoline-2-carbon-yl)-4-phenylpiperidine-4-carbonitrile] | 7.50
O=C(c1cc(C(=O)N2CCCCC2)c2cc(OCc3nc4ccccc4s3)ccc2n1)N1CC[C@H]2OCCC[C@@H]2C1 [Example 70] | 7.40
N#CC1(c2ccccc2)CCN(C(=O)c2cc(C(=O)N3CCCCC3)c3cc(OCc4ccc([N+](=O)[O-])cc4)ccc3n2)CC1 [Example 37, 1-(6-((4-nitrobenzyl)oxy)-4-(piperidine-1-carbonyl)quin-oline-2-carbonyl)-4-phenyl-piperidine-4-carbonitrile] | 7.32
N#CC1(c2ccccc2)CCN(C(=O)c2cc(C(=O)N3CCCCC3)c3cc(OCc4ccccn4)ccc3n2)CC1 [Example 48, 4-phenyl-1-(4-(piperidine-1-carbonyl)-6-(pyridin-2-yl-methoxy)quinoline-2-carbon-yl)piperidine-4-carbonitrile] | 7.35
O=C(c1cc(C(=O)N2CCCCC2)c2cc(OCCCc3cccnc3)ccc2n1)N1CCC(n2cccn2)CC1 [Example 8, (4-(1H-pyrazol-1-yl)piperidin-1-yl)(4-(piperidine-1-carbon-yl)-6-(3-(pyridin-3-yl)pro-poxy)quinolin-2-yl)methanone] | 7.73
N#CC1(c2ccccc2)CCN(C(=O)c2cc(C(=O)N3CCCCC3)c3cc(OCc4ccc(OC(F)F)cc4)ccc3n2)CC1 [Example 36, 1-(6-((4-(difluoro-l3-meth-oxy)phenyl)methoxy)-4-(piperidine-1-carbonyl)quin-oline-2-carbonyl)-4-phenyl-piperidine-4-carbonitrile] | 7.54
N#CC1(c2ccccc2)CCN(C(=O)c2cc(C(=O)N3CCCCC3)c3cc(OCc4ccc(C(F)(F)F)cc4)ccc3n2)CC1 [Example 38, 4-phenyl-1-(4-(piperidine-1-carbonyl)-6-((4-(trifluoro-methyl)benzyl)oxy)quin-oline-2-carbonyl)piperidine-4-carbonitrile] | 7.31
O=C(c1cc(C(=O)N2CCCCC2)c2cc(OCc3nc4ccccc4s3)ccc2n1)N1CCC(n2cccn2)CC1 [Example 26, (4-(1H-pyrazol-1-yl)piperidin-1-yl)(6-(benzo[d]thiazol-2-ylmethoxy)-4-(piperidine-1-carbonyl)quinolin-2-yl) methanone] | 7.54
O=C(c1cc(C(=O)N2CCCCC2)c2cc(OCc3nc4ccccc4s3)ccc2n1)N1CCCN(Cc2nccs2)CC1 [Example 71, 4-(6-(benzo[d]thiazol-2-yl-methoxy)-4-(piperidine-1-carbonyl)quinoline-2-car-bonyl)-1-(thiazol-2-yl-methyl)-1,4-diazepan-1-ium 2,2,2-trifluoroacetate] | 7.31
N#Cc1ccccc1COc1ccc2nc(C(=O)N3CCC(C#N)(c4ccccc4)CC3)cc(C(=O)N3CCCCC3)c2c1 [Example 30, 1-(6-((2-cyanobenzyl)oxy)-4-(piperidine-1-carbonyl)quin-oline-2-carbonyl)-4-phenyl-piperidine-4-carbonitrile] | 7.52
O=C(c1cc(C(=O)N2CCCCC2)c2cc(OCc3cc4ccccn4n3)ccc2n1)N1CCC(n2cccn2)CC1 [Example 22, (4-(1H-pyrazol-1-yl)piperidin-1-yl)(4-(piperidine-1-carbon-yl)-6-(pyrazolo[1,5-a]pyridin-2-ylmethoxy)quinolin-2-yl) methanone] | 7.35
Cc1c(COc2ccc3nc(C(=O)N4CCC(C#N)(c5ccccc5)CC4)cc(C(=O)N(C)C)c3c2)ccc2c1COC2=O [Example 3, 2-(4-cyano-4-phenylpiperidine-1-carbonyl)-N,N-dimethyl-6-((4-methyl-1-oxo-1,3-dihydroisobenzofuran-5-yl)methoxy)quinoline-4-carboxamide] | 7.40
N#Cc1cc(F)ccc1COc1ccc2nc(C(=O)N3CCC(C#N)(c4ccccc4)CC3)cc(C(=O)N3CCCCC3)c2c1 [Example 45, 1-(6-((2-cyano-4-fluoro-benzyl)oxy)-4-(piperidine-1-carbonyl)quinoline-2-carbon-yl)-4-phenylpiperidine-4-carbonitrile] | 7.43
CC1(O)CCN(C(=O)c2cc(C(=O)N3CCCCC3)c3cc(OCc4ccc5c(c4Cl)COC5=O)ccc3n2)C1 (racemic) [Example 4, rac-4-chloro-5-(((2-(3-hydroxy-3-methylpyrrolidine-1-carbonyl)-4-(piperidine-1-carbonyl)quinolin-6-yl)oxy)methyl)isobenzofuran-1(3H)-one] | 8.02
CS(=O)(=O)N1CCN(C(=O)c2cc(C(=O)N3CCCCC3)c3cc(OCc4nc5ccccc5s4)ccc3n2)CC1 [Example 68, (6-(benzo[d]thiazol-2-yl-methoxy)-2-(4-(methyl-sulfonyl)piperazine-1-carbonyl)quinolin-4-yl)-(piperidin-1-yl)methanone] | 7.72
CN(C(=O)c1cc(C(=O)N2CCC(n3cccn3)CC2)nc2ccc(OCc3nc4ccccc4s3)cc12)C1CCC1 [Example 55, 2-(4-(1H-pyrazol-1-yl)piperi-dine-1-carbonyl)-6-(benzo[d]-thiazol-2-ylmethoxy)-N-cyclo-butyl-N-methylquinoline-4-carboxamide] | 6.44
O=C(c1cc(C(=O)N2CCCCC2)c2cc(OCc3nc4ccccc4s3)ccc2n1)N1CCC(n2ccnn2)CC1 [Example 64, (4-(1H-1,2,3-triazol-1-yl)-piperidin-1-yl)(6-(benzo-[d]thiazol-2-ylmethoxy)-4-(piperidine-1-carbonyl)-quinolin-2-yl)methanone] | 7.38
Cn1c(COc2ccc3nc(C(=O)N4CCC(C#N)(c5ccccc5)CC4)cc(C(=O)N4CCCCC4)c3c2)nc2ccccc21 [Example 50, 1-(6-((1-methyl-1H-benzo[d]-imidazol-2-yl)methoxy)-4-(piperidine-1-carbonyl)quin-oline-2-carbonyl)-4-phenyl-piperidine-4-carbonitrile] | 7.48
N#Cc1ccc(F)cc1COc1ccc2nc(C(=O)N3CCC(C#N)(c4ccccc4)CC3)cc(C(=O)N3CCCCC3)c2c1 [Example 44, 1-(6-((2-cyano-5-fluoro-benzyl)oxy)-4-(piperidine-1-carbonyl)quinoline-2-carbon-yl)-4-phenylpiperidine-4-carbonitrile] | 7.35
O=C(c1cc(C(=O)N2CCCCC2)c2cc(OCc3nc4ccccc4s3)ccc2n1)N1CCN(CC(F)(F)F)CC1 [Example 65, (6-(benzo[d]thiazol-2-yl-methoxy)-2-(4-(2,2,2-trifluoroethyl)piperazine-1-carbonyl)quinolin-4-yl)-(piperidin-1-yl)methanone] | 7.72
